# From publication PMC6155721, “Hair Growth Promoting and Anticancer Effects of p21-activated kinase 1 (PAK1) Inhibitors Isolated from Different Parts of Alpinia zerumbet” (Molecules : A Journal of Synthetic Chemistry and Natural …, 2017)
# “And” between values parts separate entries of the source, which are not always exact repeats. Identical values can stand only once. Like-named read-outs stand apart in the source and are kept apart here.
# Key:
# [1] = tested on: A549 lung cancer cells; test: Anticancer activity by MTT assay; type: cell-based; conditions: mean ± SE of six replications, read-out: IC50 (μM), anti-cancer activity against the A549 cell line
# Experimental: The assay was performed as previously described. Lung cancer cells (A549) were seeded into a 96-well plate at a density of 1 × 10^4 cells/well, and cultured for 24 h before the compounds were added. The cells were incubated in a humidified atmosphere of 5% CO2 at 37 °C for 72 h. After treatment, 20 μL MTT solution (0.5 mg/mL) was added to each well, and the plates were incubated for 3 h. The medium was removed, and the formazan was dissolved in 200 μL of DMSO. After shaking the plate for 10 min, cell viability was assessed by measuring the absorbance at 490 nm using a microplate reader (Corona, Hitachinaka-ku, Ibaraki, Japan). DMSO was used as a blank. The corrected absorbance of sample was divided by the corrected absorbance of the control, and then multiplied by 100% to give the percentage cell viability.
# [2] = target: human PAK1 (Homo sapiens, UniProt Q13153); test: In vitro PAK1 inhibition, ADP-Glo kinase assay; type: biochemical; conditions: mean ± SE of six replications, read-out: IC50 (μM), in vitro PAK1 inhibitory activity
# Experimental: PAK1 kinase activity was measured using the ADP-Glo™ kinase assay kit (Promega, Madison, WI, USA) according to manufacturer’s instructions. Briefly, human PAK1 (25 ng/reaction) was incubated with test compounds (5 μL) for 10 min. […] The reaction was terminated by adding 25 μL ADP-Glo™ reagent, followed by an incubation time of 40 min. The kinase detection reagent (50 μL) was added to the reaction mixture, and after 30 min of incubation, the luminescence was recorded by MTP-880Lab microplate reader (Corona, Ibaraki, Japan) with an integration time of 0.5 s per well. The percentage inhibition was calculated relative to the control kinase activity without any inhibitor.
# [3] = tested on: human follicle dermal papilla cells (HFDPC); test: Human follicle dermal papilla cell (HFDPC) proliferation, MTT assay; type: cell-based; conditions: for proliferation of HFDPC / Cell viability (%) / viability at 10 µM / viability at 50 µM / viability at 100 µM: four days incubation; for viability at 10 µM / viability at 50 µM / viability at 100 µM: Homo sapiens, 96 h
# Experimental: Human follicle dermal papilla cell (HFDPC) (TOYOBO, Tokyo, Japan) proliferation was assayed as described by Nguyen et al.. Cells were cultured in growth medium containing 50 mL papilla cell growth medium (PCGM), 0.5 mL FCS, 0.5 mL BPE, 0.25 mL Cyp, and 0.25 mL ITT (51.5 mL total volume). Cell viability was evaluated using the thiazolyl blue tetrazolium bromide (MTT) assay. Cells were collected and diluted in medium containing D-MEM and 10% FBS at a cell density of 1 × 10^4 cells/mL. Then, cell suspension (200 μL) was transferred into a collagen-coated 96-well plate at a density of 2000 cells/well. After incubation for three days, 200 μL of the isolated compounds in DMEM was added. After four days of incubation, 100 μL of MTT solution in D-MEM (0.4 mg/mL) was added, and the mixture was incubated for 2 h. The untransformed MTT was removed, and 100 μL of 2-propanol was added to each well to dissolve the formazan crystals. The absorbance was read at 570 nm and 650 nm using a microplate reader. The cell viability was calculated from the readings, and represented as a percentage of the control value (cells treated with D-MEM only).
# [4] = 100 μM, percentage of control value
# [5] = 10 μM, percentage of control value (cells treated with D-MEM only)
# Sequence of human PAK1 (Q13153 whole entry): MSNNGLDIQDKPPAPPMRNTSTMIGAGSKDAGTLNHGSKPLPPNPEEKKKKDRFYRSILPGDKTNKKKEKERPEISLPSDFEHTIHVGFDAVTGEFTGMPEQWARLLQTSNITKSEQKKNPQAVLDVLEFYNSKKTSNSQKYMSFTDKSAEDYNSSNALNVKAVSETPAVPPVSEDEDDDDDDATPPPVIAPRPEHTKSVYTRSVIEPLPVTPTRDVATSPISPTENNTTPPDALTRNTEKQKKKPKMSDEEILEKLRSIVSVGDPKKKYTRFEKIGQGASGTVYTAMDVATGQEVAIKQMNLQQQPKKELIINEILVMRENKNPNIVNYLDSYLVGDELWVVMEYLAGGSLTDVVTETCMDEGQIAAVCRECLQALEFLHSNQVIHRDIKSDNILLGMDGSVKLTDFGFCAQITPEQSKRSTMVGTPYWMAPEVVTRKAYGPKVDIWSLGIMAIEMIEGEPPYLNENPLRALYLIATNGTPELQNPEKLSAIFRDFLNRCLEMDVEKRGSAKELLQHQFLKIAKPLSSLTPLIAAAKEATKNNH
SMILES,IC50 ([1]; 72 h) [µM],"IC50 ([1]; Homo sapiens, A549, 72 h) [µM]",IC50 [2],"proliferation of HFDPC / Cell viability (%) [3, 4] [%]","viability at 10 µM [3, 5] [%]",viability at 50 µM ([3]; percentage of control value) [%],"viability at 100 µM [3, 4] [%]","proliferation of HFDPC / Cell viability (%) [3, 5]",effect on hair cell proliferation ([3]; at around 50 μM or higher),"IC50 ([1]; Homo sapiens, 72 h) [µM]"
"COc1cc(/C=C/C(=O)CC(=O)/C=C/c2ccc(O)c(OC)c2)ccc1O [Curcumin, reference compound]",30.3 ± 2.9,30,,,,,,,,
"O=C(O)C1OC(Oc2c(-c3ccc(O)cc3)oc3cc(O)cc(O)c3c2=O)C(O)C(O)C1O [KOG, kaempferol-3-O-β-D-glucuronide]",,81.4 ± 1.9,39 µM and 39.3 µM,~180,118,158,181,,,
"C=C1CCC2C(C)(C)CCCC2(C)C1C/C=C(/C=O)CC=O (centres unmarked) [Labdadiene, 8(17),12-Labdadiene-15,16-dial]",67.1 ± 6,67,52 µM and 52.1 µM,~226,133,197,227,about 132%,,
CO/C=C/C=C/C=C/C1C=CC(/C=C/C=C/C=C/OC)O1 (centres unmarked) [MTD],,98.9 ± 9.3,59 µM and 58.6 µM,,165,190,113,,,
"Nc1cc(N2CCCCC2)nc(N)[n+]1[O-] [Minoxidil, reference compound]",,,,,116,,,119%,,
"C=C1CC2CC(C)(C)C(C)(C)CN2CC1CCCCC/C=C/C (centres unmarked) [TMOQ, (E)-2,2,3,3-tetramethyl-8-methylene-7-(oct-6-en-1-yl)octahydro-1H-quinolizine]",,,49 µM and ~50 µM and 49.3 µM,,139,104,68.5,,did not significantly affect the hair cell proliferation,90.8 ± 1.6
